Drawing on BindingDB's records for doi:10.1016/j.bmc.2009.10.032 (NIH, 2009), this text covers IC50 for two molecules.

Each structure is given as a SMILES string. A value given as a limit tells only on which side of the number the result lay.

The target in one test is T1, Protein Mdm4 (Homo sapiens, UniProt O15151).
T1 sequence (O15151 whole entry): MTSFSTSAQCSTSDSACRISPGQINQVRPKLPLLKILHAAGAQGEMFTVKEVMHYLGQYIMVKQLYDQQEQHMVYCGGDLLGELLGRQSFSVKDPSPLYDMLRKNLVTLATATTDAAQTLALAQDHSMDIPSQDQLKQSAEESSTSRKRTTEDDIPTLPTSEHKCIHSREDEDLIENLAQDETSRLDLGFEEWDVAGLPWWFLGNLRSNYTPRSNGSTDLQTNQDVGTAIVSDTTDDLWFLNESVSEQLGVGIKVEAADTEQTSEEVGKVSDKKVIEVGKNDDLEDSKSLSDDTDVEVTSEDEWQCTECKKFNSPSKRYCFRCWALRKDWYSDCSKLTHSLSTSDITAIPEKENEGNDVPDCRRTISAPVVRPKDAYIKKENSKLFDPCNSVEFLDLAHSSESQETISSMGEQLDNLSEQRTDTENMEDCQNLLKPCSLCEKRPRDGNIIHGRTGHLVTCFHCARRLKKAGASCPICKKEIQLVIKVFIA
The test can be described thus: Fluorescence Anisotropy Competition Binding Assay. The method, then: (§1) Inhibitory activities of NAPAs were measured by fluorescence anisotropy competition experiments. Protein was incubated with fluorescein-labeled human p53 peptide in the presence of test compound. Experiments were performed with a 70-fold molar excess of protein over labeled p53-peptide to ensure that the peptide is completely bound by the protein. […] Fluorescence anisotropy was measured at 25 deg C on a Beacon 2000 (PanVera, Madison, WI). Data points were measured in triplicate. IC50 values were calculated by nonlinear regression curve fitting.

Test [1] concerns the target E3 ubiquitin-protein ligase Mdm2 (Homo sapiens, UniProt Q00987). In words: Fluorescence Anisotropy Competition Binding Assay. The method, then: as §1

Sequence of E3 ubiquitin-protein ligase Mdm2 (Q00987 whole entry): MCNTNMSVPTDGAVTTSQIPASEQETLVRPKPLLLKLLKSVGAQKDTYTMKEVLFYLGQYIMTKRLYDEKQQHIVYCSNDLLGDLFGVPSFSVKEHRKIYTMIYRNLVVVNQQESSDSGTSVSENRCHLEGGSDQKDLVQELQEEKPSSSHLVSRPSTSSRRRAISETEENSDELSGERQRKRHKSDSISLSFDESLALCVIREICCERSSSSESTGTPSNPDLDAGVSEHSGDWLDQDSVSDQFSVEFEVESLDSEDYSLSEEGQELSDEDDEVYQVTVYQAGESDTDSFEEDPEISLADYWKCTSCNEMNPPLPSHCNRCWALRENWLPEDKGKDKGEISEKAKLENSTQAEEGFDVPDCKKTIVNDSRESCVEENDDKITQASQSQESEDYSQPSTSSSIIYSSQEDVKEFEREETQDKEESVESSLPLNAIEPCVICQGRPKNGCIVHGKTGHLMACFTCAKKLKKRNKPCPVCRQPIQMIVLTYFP

With `NCCCCC(CN(C(=O)NCCc1ccc(Br)cc1)C(CCC(=O)O)CN(CCC(N)=O)C(=O)NCCCc1ccc(Br)cc1)N(CC(CCC(=O)O)NC(=O)Nc1ccccc1)C(=O)NCCCC1CCCCC1` (centres undefined) [N-acylpolyamine (NAPA) scaffold, 19], the IC50 on Protein Mdm4 came to 7.6 µM; in test [1] (pH 7.6, 23 °C), 10.5 µM.
Consider `CC(C)CCC(=O)NC(CCC(=O)O)CN(CCCCCC1CCCCC1)C(CCCCN)CN(CCCCc1ccc(Br)cc1)C(CCC(=O)O)CN(CCCCCc1ccc(F)cc1)CCC(N)=O` (centres undefined) [N-acylpolyamine (NAPA) scaffold, 36], for which the half-maximal inhibitory concentration (IC50) (on Protein Mdm4; in test [1]) was more than 100 µM in each case.
